# Laboratory results taken from PubChem BioAssay AID288 (DTP/NCI, 2004).
# Values joined by “and” are separate entries in the source; they are usually repeats but may differ in a detail not shown here. Identical values can stand only once. Records with an inconclusive call do not appear.
# Test system: BDF1 mice, M5076 sarcoma s.c., survival/tumor T/C
# Experiment: NCI In Vivo Anticancer Drug Screen. Data for tumor model Sarcoma M5076 (subcutaneous) in B6D2F1 (BDF1) mice
# Protocol: The antitumor activity of compounds was measured in mice bearing transplantable tumors. Survival or tumor size were measured and the results are expressed as the measurement made in the treated group (T) divided by the measurement made in the vehicle treated control group (C). The tumor model used in this assay is Sarcoma M5076 (subcutaneous) in B6D2F1 (BDF1) mice
# [1] = endpoint: median survival time, dose: 50.0 mg/kg/injection, schedule: Q01DX009 (ip), vehicle: saline with Tween-80, higher = longer survival
# [2] = endpoint: median survival time, dose: 100.0 mg/kg/injection, schedule: Q01DX009 (ip), vehicle: saline with Tween-80, higher = longer survival
# [3] = endpoint: median survival time, dose: 200.0 mg/kg/injection, schedule: Q01DX009 (ip), vehicle: saline with Tween-80, higher = longer survival
# [4] = endpoint: median tumor weight (est.), dose: 50.0 mg/kg/injection, schedule: Q01DX009 (ip), vehicle: saline with Tween-80, higher = larger tumour
# [5] = endpoint: median tumor weight (est.), dose: 100.0 mg/kg/injection, schedule: Q01DX009 (ip), vehicle: saline with Tween-80, higher = larger tumour
# [6] = endpoint: median tumor weight (est.), dose: 200.0 mg/kg/injection, schedule: Q01DX009 (ip), vehicle: saline with Tween-80, higher = larger tumour
compound,measurement,setting,value
CN(C)c1nc(N(C)C)nc(N(C)C)n1,T/C,"endpoint: median survival time, dose: 44.0 mg/kg/injection, schedule: Q04DX006 (ip), vehicle: saline with Tween-80, higher = longer survival",97 % of control
same,T/C,"endpoint: median survival time, dose: 88.0 mg/kg/injection, schedule: Q04DX006 (ip), vehicle: saline with Tween-80, higher = longer survival",108 % of control
same,T/C,"endpoint: median survival time, dose: 176.0 mg/kg/injection, schedule: Q02DX033 (ip), vehicle: saline with Tween-80, higher = longer survival",189 % of control
same,T/C,"endpoint: median survival time, dose: 176.0 mg/kg/injection, schedule: Q04DX006 (ip), vehicle: saline with Tween-80, higher = longer survival",120 % of control
same,T/C,"endpoint: median survival time, dose: 352.0 mg/kg/injection, schedule: Q04DX006 (ip), vehicle: saline with Tween-80, higher = longer survival",112 % of control
same,T/C,"endpoint: median tumor weight (est.), dose: 30.0 mg/kg/injection, schedule: Q02DX011 (ip), vehicle: saline with Tween-80, higher = larger tumour",110 % of control
same,T/C,"endpoint: median tumor weight (est.), dose: 60.0 mg/kg/injection, schedule: Q02DX011 (ip), vehicle: saline with Tween-80, higher = larger tumour",54 % of control
same,T/C,"endpoint: median tumor weight (est.), dose: 120.0 mg/kg/injection, schedule: Q02DX011 (ip), vehicle: saline with Tween-80, higher = larger tumour",17 % of control
CC[C@]1(O)C[C@H]2CN(CCc3c([nH]c4ccccc34)[C@@](C(=O)OC)(c3cc4c(cc3OC)N(C=O)[C@H]3[C@@](O)(C(=O)OC)[C@H](OC(C)=O)[C@]5(CC)C=CCN6CC[C@]43[C@@H]65)C2)C1,T/C,"endpoint: median survival time, dose: 0.08 mg/kg/injection, schedule: Q02DX030 (ip), vehicle: saline, higher = longer survival",110 % of control
same,T/C,"endpoint: median survival time, dose: 0.08 mg/kg/injection, schedule: Q04DX006 (ip), vehicle: saline, higher = longer survival",112 % of control
same,T/C,"endpoint: median survival time, dose: 0.15 mg/kg/injection, schedule: Q04DX006 (ip), vehicle: saline, higher = longer survival",97 % of control
same,T/C,"endpoint: median survival time, dose: 0.3 mg/kg/injection, schedule: Q04DX006 (ip), vehicle: saline, higher = longer survival",103 % of control
same,T/C,"endpoint: median survival time, dose: 0.6 mg/kg/injection, schedule: Q04DX006 (ip), vehicle: saline, higher = longer survival",109 % of control
Nc1nc(N)c2c(ccc3nccc32)[nH]1,T/C,"endpoint: median survival time, dose: 12.5 mg/kg/injection, schedule: Q01DX009 (ip), vehicle: saline with Tween-80, higher = longer survival",86 % of control
same,T/C,"endpoint: median survival time, dose: 25.0 mg/kg/injection, schedule: Q01DX009 (ip), vehicle: saline with Tween-80, higher = longer survival",92 % of control
same,T/C,"endpoint: median tumor weight (est.), dose: 12.5 mg/kg/injection, schedule: Q01DX009 (ip), vehicle: saline with Tween-80, higher = larger tumour",80 % of control
same,T/C,"endpoint: median tumor weight (est.), dose: 25.0 mg/kg/injection, schedule: Q01DX009 (ip), vehicle: saline with Tween-80, higher = larger tumour",62 % of control
CC(C)CC(NC(=O)C(N)C(C)C)C(=O)NC(CCCCN)C(=O)NC(C(=O)O)C1CC(Cl)=NO1 (stereo not drawn),T/C,"endpoint: median survival time, dose: 1.6 mg/kg/injection, schedule: Q01DX010 (ip), vehicle: saline, higher = longer survival",103 % of control and 106 % of control
same,T/C,"endpoint: median survival time, dose: 25.6 mg/kg/injection, schedule: Q01DX010 (ip), vehicle: saline, higher = longer survival",173 % of control
same,T/C,"endpoint: median survival time, dose: 51.2 mg/kg/injection, schedule: Q01DX010 (ip), vehicle: saline, higher = longer survival",166 % of control
OC(CBr)C(O)C(O)C(O)CBr (stereo not drawn),T/C,"endpoint: mean tumor weight, dose: 37.5 mg/kg/injection, schedule: Q02DX011 (ip), vehicle: Klucel (hydroxypropylcellulose) (HPC), higher = larger tumour",66 % of control
same,T/C,"endpoint: mean tumor weight, dose: 75.0 mg/kg/injection, schedule: Q02DX011 (ip), vehicle: Klucel (hydroxypropylcellulose) (HPC), higher = larger tumour",63 % of control
same,T/C,"endpoint: mean tumor weight, dose: 150.0 mg/kg/injection, schedule: Q02DX011 (ip), vehicle: Klucel (hydroxypropylcellulose) (HPC), higher = larger tumour",52 % of control
same,T/C,"endpoint: median survival time, dose: 30.0 mg/kg/injection, schedule: Q04DX009 (ip), vehicle: saline with Tween-80, higher = longer survival",108 % of control
same,T/C,"endpoint: median survival time, dose: 60.0 mg/kg/injection, schedule: Q02DX033 (ip), vehicle: saline with Tween-80, higher = longer survival",112 % of control
same,T/C,"endpoint: median survival time, dose: 60.0 mg/kg/injection, schedule: Q04DX009 (ip), vehicle: saline with Tween-80, higher = longer survival",108 % of control
same,T/C,"endpoint: median survival time, dose: 120.0 mg/kg/injection, schedule: Q02DX033 (ip), vehicle: saline with Tween-80, higher = longer survival",158 % of control
same,T/C,"endpoint: median survival time, dose: 120.0 mg/kg/injection, schedule: Q04DX009 (ip), vehicle: saline with Tween-80, higher = longer survival",112 % of control
same,T/C,"endpoint: median tumor weight (est.), dose: 37.5 mg/kg/injection, schedule: Q02DX011 (ip), vehicle: Klucel (hydroxypropylcellulose) (HPC), higher = larger tumour",75 % of control
same,T/C,"endpoint: median tumor weight (est.), dose: 75.0 mg/kg/injection, schedule: Q02DX011 (ip), vehicle: Klucel (hydroxypropylcellulose) (HPC), higher = larger tumour",90 % of control
same,T/C,"endpoint: median tumor weight (est.), dose: 150.0 mg/kg/injection, schedule: Q02DX011 (ip), vehicle: Klucel (hydroxypropylcellulose) (HPC), higher = larger tumour",72 % of control
COC1C(O)C(C)OC(OC2C(Oc3cccc4c(O)c5c(=O)oc6ccc(C)c7c(=O)oc(c34)c5c67)OC(C)C(O)C2O)C1O (stereo not drawn),T/C,"endpoint: mean tumor weight, dose: 25.0 mg/kg/injection, schedule: Q02DX011 (ip), vehicle: Klucel (hydroxypropylcellulose) (HPC), higher = larger tumour",83 % of control
same,T/C,"endpoint: mean tumor weight, dose: 50.0 mg/kg/injection, schedule: Q02DX011 (ip), vehicle: Klucel (hydroxypropylcellulose) (HPC), higher = larger tumour",96 % of control
same,T/C,"endpoint: mean tumor weight, dose: 100.0 mg/kg/injection, schedule: Q02DX011 (ip), vehicle: Klucel (hydroxypropylcellulose) (HPC), higher = larger tumour",57 % of control
same,T/C,"endpoint: median tumor weight (est.), dose: 50.0 mg/kg/injection, schedule: Q02DX011 (ip), vehicle: Klucel (hydroxypropylcellulose) (HPC), higher = larger tumour",82 % of control
same,T/C,"endpoint: median tumor weight (est.), dose: 100.0 mg/kg/injection, schedule: Q02DX011 (ip), vehicle: Klucel (hydroxypropylcellulose) (HPC), higher = larger tumour",48 % of control
CCN1Cc2c(/C=C/c3ccccc3)nc3ccc(OC)cc3c2N(c2cccc(Cl)c2)C1,T/C,[1],99 % of control
same,T/C,[2],99 % of control
same,T/C,[3],105 % of control
same,T/C,[4],60 % of control
same,T/C,[5],105 % of control
same,T/C,[6],73 % of control
Cc1cc(-c2ccc(NC(=O)Nc3cccc(F)c3)c(C)c2)ccc1NC(=O)Nc1cccc(F)c1,T/C,[1],110 % of control
same,T/C,[2],102 % of control
same,T/C,[3],104 % of control
same,T/C,[4],107 % of control
same,T/C,[5],84 % of control
same,T/C,[6],70 % of control
